Test results as given in publication PMC8949103 (Viruses, 2022).

Assays:
PDCoV M^pro [1] = target: T1, PDCoV M^pro (Porcine deltacoronavirus, UniProt A0A140ESF0); test: fluorogenic peptide cleavage assay, progress-curve inactivation; format: biochemical; settings: covalent; irreversible, Cys-144, active site; substrate MCA-AVLQSGFR-Lys(Dnp)-Lys-NH2 50 µM; enzyme 2 µM; pH 7.3, 30 °C
PDCoV M^pro [2] = target: T1, PDCoV M^pro; test: as above; format: biochemical; settings: covalent; Michael acceptor N3 derivative; assay similar to N3
[3] = target: Porcine deltacoronavirus (PDCoV) main protease (M^pro) (Porcine deltacoronavirus (PDCoV)); test: crystal structure

Cc1cc(C(=O)N[C@@H](C)C(=O)N[C@H](C(=O)N[C@@H](CC(C)C)C(=O)N[C@H](/C=C/C(=O)OCc2ccccc2)C[C@@H]2CCNC2=O)C(C)C)no1 [N3]
KI (inactivation) (PDCoV M^pro [1]): 12 ± 0.13 µM

COc1ccc(COC(=O)/C=C/[C@H](C[C@@H]2CCNC2=O)NC(=O)[C@H](CC(C)C)NC(=O)[C@@H](NC(=O)[C@H](C)NC(=O)c2cc(C)on2)C(C)C)cc1 [M25]
KI (inactivation) (PDCoV M^pro [2]): 8.8 ± 0.15 µM

Porcine deltacoronavirus (PDCoV) main protease (M^pro) (enzyme)
stoichiometry N [3]: 2

Cc1cc(C(=O)N[C@@H](C)C(=O)N[C@H](C(=O)N[C@@H](CC(C)C)C(=O)N[C@H](/C=C/C(=O)OC(C)C)C[C@@H]2CCNC2=O)C(C)C)no1 [M14]
KI (inactivation) (PDCoV M^pro [2]): 7.56 ± 0.26 µM
